The record followed here is patent EP0490919B1, “CYTOPROTECTIVE COMPOUNDS BEARING UNSATURATED HYDROCARBON GROUPS HAVING 16 TO 20 CARBON ATOMS” (VIRGINIA COMMONWEALTH UNIVERSITY, priority 1989, dated 1991).

Each structure is given as a SMILES string. Structures can show the parent of a compound that is named as a salt.

One experiment has as its system PLA2. The experiment can be described thus: Anti-PLA2 activity (Table 6). In kind it is biochemical. The note with it: read-out: IC-50 Anti-PLA2 Activity.
Experiment [1] can be described thus: Anti-oxidant activity (Table 6). Particulars: read-out: IC-50 Anti-Oxidant Activity; nd = not detectable at ≤ 500 uM.

With `CCCCC/C=C\C/C=C\CCCCCCCC(=O)OC(C(=O)O)C(OC(=O)CCCCCCC/C=C\C/C=C\CCCCC)C(=O)O` (centres unmarked) [PX-9], the IC50 with PLA2 came to 7.5 µM; in experiment [1], 100 µM.

As to `CCCCCCCC/C=C\CCCCCCCC(=O)OC(C(=O)O)C(OC(=O)CCCCCCC/C=C\CCCCCCCC)C(=O)O` (centres unmarked) [PX-10], the IC50 in the experiment on PLA2 was 7 µM; in experiment [1], 60 µM.

Take `CCCCCCCC/C=C\CCCCCCCC(=O)OCC1(COC(=O)CCCCCCC/C=C\CCCCCCCC)COC(=O)CN1C(=O)CCCCCCC/C=C\CCCCCCCC` [PX-11, Tricinyl Trioleate]: the IC50 is 2.6 µM with PLA2 and 145 µM in experiment [1].

For `CCCCCCCC/C=C\CCCCCCCC(=O)OCC(N)(COC(=O)CCCCCCC/C=C\CCCCCCCC)COC(=O)CCCCCCC/C=C\CCCCCCCC` [PX-12, P-Toluene Sulfonate Salt of Tris Trioleate], the IC50 came out at 1.5 µM in the experiment on PLA2 and 50 µM in experiment [1].

As for `CCCCCCCC/C=C\CCCCCCCC(=O)OCC(COC(=O)CCCCCCC/C=C\CCCCCCCC)(COC(=O)CCCCCCC/C=C\CCCCCCCC)NCCS(=O)(=O)O` [PX-13, TES Trioleate], the figures for the IC50 (in the experiment on PLA2; in experiment [1]) were 2.2 µM and 60 µM, respectively.

Turning to `CCCCC/C=C\C/C=C\CCCCCCCC(=O)OCC1(COC(=O)CCCCCCC/C=C\C/C=C\CCCCC)COC(=O)CN1C(=O)CCCCCCC/C=C\C/C=C\CCCCC` [PX-15], the IC50 with PLA2 came to 19.2 µM.
